≈ marks a conversion by molar mass, not a printed value. Like-named read-outs stand apart in the source and are kept apart here.
What was measured:
[1] = system: Aspergillus fumigatus L98H (TR34/L98H); test: Broth microdilution assay (modified EUCAST); format: cell-based; conditions: Aspergillus fumigatus, read-out: MIC75 against Aspergillus fumigatus isolate L98H
How it was run: (§1)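 Spores from 3-day Sabouraud cultures (working suspension 2 × 10^5 spores/mL) were added to an equal volume of RPMI-1640 (2 mM L-glutamine, 0.5% BSA, 2% glucose, 0.165 M MOPS, pH 7) containing compound, in quadruplicate. After 48 hr at 35 °C, OD530 gave percent inhibition. MIC50, MIC75 and MIC90 came from concentration-response curves.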

[2] = system: Aspergillus fumigatus NCPF7099; test: Broth microdilution assay (modified EUCAST); format: cell-based; conditions: Aspergillus fumigatus, NCPF7099, n = 3, read-out: MIC75 against Aspergillus fumigatus isolate NCPF7099
How it was run: as §1

[3] = system: Aspergillus fumigatus NCPF2010; test: Broth microdilution assay (modified EUCAST); format: cell-based; conditions: Aspergillus fumigatus
How it was run: as §1

[4] = Cell viability: resazurin assay; format: cell-based, human; conditions: human, BEAS2B cells; n = 3-5
How it was run: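 BEAS2B cells in RPMI-LHC8, exposed to compound for 1 day at 37 °C (0.5% DMSO final), then resazurin added for a further 4 h. Fluorescence (ex 545/em 590 nm) gives % viability loss vs 0.5% DMSO vehicle; CC50 from concentration-response curve.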

[5] = system: aspergillus fumigatus (ATCC 13073 [strain: NIH 5233]); test: In vivo anti-fungal activity, prophylactic and therapeutic treatment of infected immunocompromised neutropenic mice; parameters: species or system A/J mice; conditions: for % Inhibition versus Infected Control, GM in BALF / % Inhibition versus Infected Control, GM in serum / % Inhibition versus Infected Control, Lung Fungal Load: therapeutic treatment (days 1, 2 and 3); for % Inhibition versus Infected Controls, GM in BALF / % Inhibition versus Infected Controls, GM in serum / % Inhibition versus Infected Controls, Lung Fungal Load: prophylactic treatment (days 0, 1, 2 and 3)
[6] = system: Aspergillus fumigatus NCPF7100; test: Broth microdilution assay (modified EUCAST); format: cell-based; conditions: Aspergillus fumigatus, NCPF7100, read-out: MIC75 against Aspergillus fumigatus isolate NCPF7100
[7] = system: aspergillus fumigatus infection of BEAS2B cells; test: Aspergillus fumigatus infection of bronchial epithelial cells (GM in supernatant); format: cell-based; conditions: bronchial epithelial cells infected with Aspergillus fumigatus; read-out: MIC50 Infection of BEAS2B cells
How it was run: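 BEAS2B cells in 10% FBS RPMI-1640 pre-treated with compound (0.5% DMSO final) for 1 hr at 35 °C, then infected with A. fumigatus conidia (0.5×10^5/ml suspension) for 24 hr at 35 °C. Galactomannan in 1:20-diluted supernatant measured by Platelia GM-EIA; IC50 from percent-inhibition concentration-response curves.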

[8] = system: Chaectomium globosum ATCC44699; test: Fungus panel screening, CLSI broth microdilution; format: cell-based
Protocol: Fungus panel screening was conducted by Eurofins Panlabs Inc. The MIC and MIC50 values of the test articles were determined following the guidelines of the Clinical and Laboratory Standards Institute, broth microdilution methods for yeast (CLSI M27-A2), (CLSI, 2002) and for filamentous fungi (CLSI M38-A), (CLSI, 2008).

[9] = system: aspergillus fumigatus (ATCC 13073 [strain: NIH 5233]); test: Survival of severely immunosuppressed neutropenic infected mice, monotherapy and combination; format: in vivo, A/J mice; conditions: Example 1 0.4 mg/mL (in); Posaconazole 1 mg/kg (po); once daily days 1-6
Protocol: On day 0, animals were infected intranasally with 35 µL of the spore suspension (1.67 × 10^8 spores/mL in physiological saline) of aspergillus fumigatus (ATCC 13073 [strain: NIH 5233]). Compound Example (I), prepared as a suspension in isotonic saline (0.4 mg/mL), was dosed once daily by an intra-nasal injection (35 µL/mouse) on days 1-6 after infection. Posaconazole (1 mg/kg) was given orally once daily on days 1-6 after infection. Body weight and survival were monitored daily up to day 7.

[10] = NCPF2010, read-out: MIC75 against Aspergillus fumigatus isolate NCPF2010

## Cc1nc(N2CCN(c3ccc(C(=O)Nc4ccc(F)cc4)cc3)CC2)ccc1OC[C@@H]1CO[C@@](Cn2cncn2)(c2ccc(F)cc2F)C1 [Example 3, 4-(4-(5-(((3R,5R)-5-((1H-1,2,4-Triazol-1-yl)Methyl)-5-(2,4-Difluorophenyl)Tetra Hydrofuran-3-yl)Methoxy)-6-Methylpyridin-2-yl)Piperazin-1-yl)-N-(4-Fluorophenyl) Benzamide]
[1]
  MIC: 0.033 µM (≈ 0.0226 µg/mL)
[2]
  MIC: 0.0276 µM (≈ 0.0189 µg/mL)
[3]; [10]
  MIC: 0.018 µM (≈ 0.0123 µg/mL)
[4]
  CC50 at 1 day: > 14.6 µM
[5]; 0.08 mg/mL
  % Inhibition versus Infected Control, GM in BALF: 95%
  % Inhibition versus Infected Control, GM in serum: 92%
  % Inhibition versus Infected Control, Lung Fungal Load: 98%
[5]; 0.4 mg/mL
  % Inhibition versus Infected Control, GM in BALF: 86%
  % Inhibition versus Infected Control, GM in serum: 89%
  % Inhibition versus Infected Control, Lung Fungal Load: 96%
[6]
  MIC: 0.0451 µM (≈ 0.0308 µg/mL)
[7]
  MIC50: 51.7 nM (≈ 0.0353 µg/mL)

## Cc1cc(N2CCN(c3ccc(C(=O)Nc4ccc(S(N)(=O)=O)cc4)cc3)CC2)ccc1OC[C@@H]1CO[C@@](Cn2cncn2)(c2ccc(F)cc2F)C1 [Example 19, 4-(4-(4-(((3R, 5R)-5-((1H-1,2,4-triazol-1-yl)methyl)-5-(2,4-difluorophenyl)tetrahydrofuran-3-yl)methoxy)-3-methylphenyl)piperazin-1-yl)-N-(4-sulfamoylphenyl)benzamide]
[1]
  MIC: 0.0577 µM (≈ 0.0429 µg/mL)
[2]
  MIC: 0.0089 µM (≈ 0.00662 µg/mL)
[3]; [10]
  MIC: 0.0166 µM (≈ 0.0123 µg/mL)
[4]
  CC50 at 1 day: > 13.4 µM
[5]; 0.4 mg/mL
  % Inhibition versus Infected Controls, GM in BALF: 16%
  % Inhibition versus Infected Controls, GM in serum: 30%
  % Inhibition versus Infected Controls, Lung Fungal Load: 62%
[5]; 2 mg/mL
  % Inhibition versus Infected Controls, GM in BALF: 41%
  % Inhibition versus Infected Controls, GM in serum: 47%
  % Inhibition versus Infected Controls, Lung Fungal Load: 74%
[6]
  MIC: 0.0227 µM (≈ 0.0169 µg/mL)
[7]
  MIC50: 17.2 nM (≈ 0.0128 µg/mL)

## Cc1cc(N2CCN(c3ccc(C(=O)Nc4ccc(C#N)cc4F)cc3)CC2)ccc1OC[C@@H]1CO[C@@](Cn2cncn2)(c2ccc(F)cc2F)C1 [Example 23, 4-(4-(4-(((3R, 5R)-5-((1H-1,2,4-triazol-1-yl)methyl)-5-(2,4-difluorophenyl)tetrahydrofuran-3-yl)methoxy)-3-methylphenyl)piperazin-1-yl)-N-(4-cyano-2-fluorophenyl)benzamide]
[1]
  MIC: 0.0602 µM (≈ 0.0426 µg/mL)
[2]
  MIC: 0.0284 µM (≈ 0.0201 µg/mL)
[3]; [10]
  MIC: 0.0126 µM (≈ 0.00892 µg/mL)
[4]
  CC50 at 1 day: > 14.1 µM
[5]; 0.4 mg/mL
  % Inhibition versus Infected Controls, GM in BALF: 71%
  % Inhibition versus Infected Controls, GM in serum: 79%
  % Inhibition versus Infected Controls, Lung Fungal Load: 56%
[6]
  MIC: 0.0443 µM (≈ 0.0314 µg/mL)
[7]
  MIC50: 3.37 nM (≈ 0.00239 µg/mL)

## N#Cc1cc(N2CCN(c3ccc(C(=O)Nc4ccc(F)cc4)cc3)CC2)ccc1OC[C@@H]1CO[C@@](Cn2cncn2)(c2ccc(F)cc2F)C1 [Example 4, 4-(4-(4-(((3R,5R)-5-((1H-1,2,4-Triazol-1-yl)Methyl)-5-(2,4-Difluorophenyl) Tetrahydrofuran-3-yl)Methoxy)-3-Cyanophenyl)Piperazin-1-yl)-N-(4-Fluorophenyl) Benzamide]
[1]
  MIC: 0.0737 µM (≈ 0.0511 µg/mL)
[2]
  MIC: 0.0413 µM (≈ 0.0287 µg/mL)
[3]; [10]
  MIC: 0.00868 µM (≈ 0.00602 µg/mL)
[4]
  CC50 at 1 day: > 14.4 µM
[5]; 0.4 mg/mL
  % Inhibition versus Infected Controls, GM in BALF: 84%
  % Inhibition versus Infected Controls, GM in serum: 90%
  % Inhibition versus Infected Controls, Lung Fungal Load: 85%
[6]
  MIC: 0.0383 µM (≈ 0.0266 µg/mL)
[7]
  MIC50: 7.77 nM (≈ 0.00539 µg/mL)

## O=C(Nc1ccc(F)cc1)c1ccc(N2CCN(c3ccc(OC[C@@H]4CO[C@@](Cn5cncn5)(c5ccc(F)cc5F)C4)c(CO)c3)CC2)cc1 [Example 16, 4-(4-(4-(((3R, 5R)-5-((1H-1,2,4-triazol-1-yl)methyl)-5-(2,4-difluorophenyl)tetrahydrofuran-3-yl)methoxy)-3-hydroxymethylphenyl)piperazin-1-yl)-N-(4-fluorophenyl)benzamide]
[1]
  MIC: 0.0335 µM (≈ 0.0234 µg/mL)
[2]
  MIC: 0.00926 µM (≈ 0.00647 µg/mL)
[3]; [10]
  MIC: 0.00512 µM (≈ 0.00358 µg/mL)
[4]
  CC50 at 1 day: > 14.3 µM
[5]; 0.08 mg/mL
  % Inhibition versus Infected Control, GM in BALF: 76%
  % Inhibition versus Infected Control, GM in serum: 62%
  % Inhibition versus Infected Control, Lung Fungal Load: 91%
[5]; 0.4 mg/mL
  % Inhibition versus Infected Control, GM in BALF: 88%
  % Inhibition versus Infected Control, GM in serum: 85%
  % Inhibition versus Infected Control, Lung Fungal Load: 96%
[6]
  MIC: 0.00658 µM (≈ 0.0046 µg/mL)
[7]
  MIC50: 0.82 nM (≈ 0.000573 µg/mL)

## CC[C@@H]([C@H](C)O)n1ncn(-c2ccc(N3CCN(c4ccc(OC[C@@H]5CO[C@@](Cn6cncn6)(c6ccc(F)cc6F)C5)cc4)CC3)cc2)c1=O [Posaconazole, reference compound]
[3]; NCPF2010, broth microdilution assay, n = 3, read-out: MIC75 against Aspergillus fumigatus isolate NCPF2010
  MIC: 0.0153 µM (≈ 0.0107 µg/mL)
[8]; 50% inhibition by visual inspection (CLSI)
  MIC50: 0.13 µg/mL (≈ 0.186 µM)
[8]; 100% inhibition by visual inspection (CLSI), read-out: MIC100
  MIC: 0.25 µg/mL (≈ 0.357 µM)
[5]; 0.4 mg/mL
  % Inhibition versus Infected Controls, GM in BALF: 20%
  % Inhibition versus Infected Controls, GM in serum: 34%
  % Inhibition versus Infected Controls, Lung Fungal Load: 44%
[9]
  Median survival: 6.5 days
  No. of survivors on day 7: 0/6
  Survivors on day 7 (%): 0%

Reference: patent US20230295133A1, “PROCESS FOR PREPARING A COMPOUND USEFUL TO TREAT MYCOSES” (PULMOCIDE LIMITED, priority 2014, published 2023)
